The results in this text go back to patent US7468377B2, “Imidazopyridine-derivatives as inductible no-synthase inhibitors” (Altana Pharma AG, priority 2003, dated 2008).

Data set [1] concerns the target human inducible NO-synthase (Homo sapiens, UniProt P35228). The experiment in a line: Measurement of inducible NO-synthase activity ([3H]arginine conversion). It counts as biochemical. Particulars: crude cytosolic fraction containing human inducible NO-synthase; 0.1 μM arginine; 45 to 60 min at 37° C; read-out: Inhibition of iNOS activity [measured as −logIC50 (mol/l)] (converted). As for the experimental part:
Measurement of Inducible NO-Synthase Activity
The assay is performed in 96-well microtiter F-plates (Greiner, Frickenhausen, FRG) in a total volume of 100 μl in the presence of 100 nM calmodulin, 226 μM CaCl2, 477 μM MgCl2, 5 μM flavin-adenine-dinucleotide (FAD), 5 μM flavin mononucleotide (FMN), 0.1 mM NADPH, 7 mM glutathione, 10 μM BH4 and 100 mM HEPES pH 7.2. Arginine concentrations are 0.1 μM for enzyme inhibition experiments. 150000 dpm of [^3H]arginine are added to the assay mixture. Enzyme reaction is started by the addition of 4 μg of a crude cytosolic fraction containing human inducible NO-synthase and the reaction mixture is incubated for 45 to 60 min at 37° C. Enzyme reaction is stopped by adding 10 μl of 2M MES-buffer pH 5,0. 50 μl of the incubation mixture are transferred into a MADP N65 filtration microtiter plate (Millipore, Eschborn, FRG) containing already 50 μl of AG-50W-X8 cation exchange resin (Biorad, München, FRG). The resin in the Na loaded form is preequilibrated in water and 70 μl (corresponding to 50 μl dry beads) are pipetted under heavy stirring with a 8 channel pipette into the filtration plate. After pipetting 50 μl of the enzyme reaction mixture onto the filtration plates, the plates are placed on a filtration manifold (Porvair, Shepperton, UK) and the flow through is collected in Pico scintillation plates (Packard, Meriden, Conn.). The resin in the filtration plates is washed with 75 μl of water (1×50 μl and 1×25 μl) which is also collected in the same plate as the sample. The total flow through of 125 μl is mixed with 175 μl of Microscint-40 scintillation cocktail (Packard) and the scintillation plate is sealed with TopSeal P-foil (Packard). Scintillation plates are counted in a szintillation counter.
For the measurement of inducible NO-synthase-inhibiting potencies of compounds increasing concentrations of inhibitors were included into the incubation mixture. IC50-values were calculated from the percent inhibition at given concentrations by nonlinear least square fitting.
The inhibitory values determined for the compounds according to the invention follow from the following table A, in which the compound numbers correspond to the example numbers.

In general, melting point refers to the temperature, or range, at which the solid turns liquid. Turning to `COc1ccnc(CCc2nc3cc(-c4ccc(S(=O)(=O)N(C)C)cc4)cnc3[nH]2)c1` [compound 1, 4-{2-[2-(4-Methoxypyridin-2-yl)ethyl]-3H-imidazo[4,5-b]pyridin-6-yl}-N,N-dimethyl-benzenesulfonamide], the melting point fell in the range of 217 to 218 °C. The IC50 in data set [1] was 14.8 nM.
Molecule `CCN(CC)S(=O)(=O)c1ccc(-c2cnc3[nH]c(CCc4cc(OC)ccn4)nc3c2)cc1` [compound 2, N,N-Diethyl-4-{2-[2-(4-methoxypyridin-2-yl)ethyl]-3H-imidazo-[4,5-b]pyridin-6-yl}benzenesulfonamide] showed a melting point of 127 to 129 °C. In addition, the IC50 in data set [1] was 35.5 nM.
In turn, `CNS(=O)(=O)c1ccc(-c2cnc3[nH]c(CCc4cc(OC)ccn4)nc3c2)cc1` [compound 3, 4-{2-[2-(4-Methoxypyridin-2-yl)ethyl]-3H-imidazo[4,5-b]pyridin-6-yl}-N-methyl-benzenesulfonamide] showed a melting point of 225 to 227 °C. For the same molecule, the IC50 in data set [1] was 13.8 nM.
For `COc1ccnc(CCc2nc3cc(-c4ccc(S(N)(=O)=O)cc4)cnc3[nH]2)c1` [compound 4, 4-{2-[2-(4-Methoxypyridin-2-yl)ethyl]-3H-imidazo[4,5-b]pyridin-6-yl}-benzenesulfonamide], the melting point was in the range of 216 to 218 °C. Besides, in data set [1], the IC50 was 14.8 nM.
For `CCNS(=O)(=O)c1ccc(-c2cnc3[nH]c(CCc4cc(OC)ccn4)nc3c2)cc1` [compound 5, N-Ethyl-4-{2-[2-(4-methoxypyridin-2-yl)ethyl]-3H-imidazo-[4,5-b]pyridin-6-yl}benzenesulfonamide], the melting point lay within 214 to 216 °C. For the same molecule, the IC50 in data set [1] is 24 nM.
Take `COc1ccnc(CCc2nc3cc(-c4ccc(S(=O)(=O)N(C)C)c(F)c4)cnc3[nH]2)c1` [compound 6, 2-Fluoro-4-{2-[2-(4-methoxypyridin-2-yl)ethyl]-3H-imidazo[4,5-b]pyridin-6-yl}-N,N-dimethyl-benzenesulfonamide]: the melting point was 211 to 212 °C. Moreover, the IC50 in data set [1] is 21.4 nM.
